Reference: patent US20180021467A1, “METHOD OF BLOCKING PERCEPTION OF MALODOR” (Monell Chemical Senses Center, priority 2015, published 2018)
Read-outs that look alike come from different tables or passages of the source.

Experiments:
TAAR5 [1] = biological target: T1, TAAR5 (Homo sapiens, UniProt O14804); assay: Antagonist screen of odor library on TAAR5 with agonist TMA (Dual-Glo luciferase assay, Hana3A cells); assay type: cell-based; set-up: TAAR open reading frames were amplified from pooled human genomic DNA using Phusion polymerase and subcloned into a pCI expression vector; Rho tag (first 20 residues of human rhodopsin); expressed in transfected cells; host or cells: Hana3A cells; conditions: for inhibition at 30 µM: read-out: Percent Inhibition
T1 sequence (O14804 1-337): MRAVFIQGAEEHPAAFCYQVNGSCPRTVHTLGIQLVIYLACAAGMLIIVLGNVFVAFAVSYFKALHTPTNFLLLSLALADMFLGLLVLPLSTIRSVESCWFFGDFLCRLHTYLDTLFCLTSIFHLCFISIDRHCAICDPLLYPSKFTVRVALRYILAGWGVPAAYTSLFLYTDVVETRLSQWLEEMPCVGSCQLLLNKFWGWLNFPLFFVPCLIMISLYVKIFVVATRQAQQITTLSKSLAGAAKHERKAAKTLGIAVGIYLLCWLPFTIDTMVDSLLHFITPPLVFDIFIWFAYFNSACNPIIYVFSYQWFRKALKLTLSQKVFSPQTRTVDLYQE
Protocol: We screened a TAAR of interest, TAAR5, with the agonist TMA added at the EC80 concentration, against a proprietary small-molecule library to identify antagonists. TAAR open reading frames were amplified from pooled human genomic DNA using Phusion polymerase and subcloned into a pCI expression vector (Promega) containing the first 20 residues of human rhodopsin (Rho tag). […] Hana3A cells were transfected with 5 ng/well of RTP1S, 5 ng/well of pRL-SV40, 10 ng/well of CRE-luciferase, 2.5 ng/well of M3, and 5 ng/well of odorant receptor. 1M odorant stocks were diluted in DMSO. 24 hours following transfection, transfection media was removed and replaced with the appropriate concentration of odor diluted from the 1M stocks in CD293 (Gibco). Four hours following odor stimulation luminescence was measured using a Synergy 2 plate reader (Biotek). All luminescence values were divided by the Renilla Luciferase activity to control for transfection efficiency in a given well.
We completed an antagonist screen of a proprietary library of odors, including the 52 odorous compounds identified in FIG. 4 at a concentration of 30 μM.

TAAR5 [2] = biological target: T1, TAAR5; assay: Dose responses on TAAR5 in luciferase assay (antagonist dose-dependent inhibition with TMA at EC80; TMA dose response with antagonist at IC10, IC30, IC50); assay type: cell-based; set-up: TAAR open reading frames were amplified from pooled human genomic DNA using Phusion polymerase and subcloned into a pCI expression vector; Rho tag (first 20 residues of human rhodopsin); expressed in transfected cells; host or cells: Hana3A cells; conditions: for IC10 concentration of antagonist: lowest of the three concentrations in FIG. 2; for IC30 concentration of antagonist: middle of the three concentrations in FIG. 2
Excerpt: We screened a TAAR of interest, TAAR5, with the agonist TMA added at the EC80 concentration, against a proprietary small-molecule library to identify antagonists. TAAR open reading frames were amplified from pooled human genomic DNA using Phusion polymerase and subcloned into a pCI expression vector (Promega) containing the first 20 residues of human rhodopsin (Rho tag). The sequences of the cloned receptors were verified by sequencing (3730xl Sequencer, ABI Biosystems). We used the Dual-Glo™ Luciferase Assay System (Promega) to measure receptor responses as previously described in Trimmer, C. et al 2014 High-throughput Analysis of Mammalian Olfactory Receptors: Measurement of Receptor Activation via Luciferase Activity. Journal of Visualized Experiments, (88). doi:10.3791/51640. Hana3A cells were transfected with 5 ng/well of RTP1S, 5 ng/well of pRL-SV40, 10 ng/well of CRE-luciferase, 2.5 ng/well of M3, and 5 ng/well of odorant receptor. 1M odorant stocks were diluted in DMSO. 24 hours following transfection, transfection media was removed and replaced with the appropriate concentration of odor diluted from the 1M stocks in CD293 (Gibco). Four hours following odor stimulation luminescence was measured using a Synergy 2 plate reader (Biotek). All luminescence values were divided by the Renilla Luciferase activity to control for transfection efficiency in a given well.
In a secondary experiment, we ran dose dependent inhibition responses for the top twelve antagonists, i.e., the top 12 compounds identified in FIG. 4. TMA was kept at the EC80 (500 μM) and the twelve antagonists were diluted in a dose response with the highest concentration at 1000 μM. The top five candidate compounds, i.e., phenethyl benzoate, trans-2-nonen-1-ol, isoeugenyl phenlacetate, tributyl-2-acetylcitrate, bis(2-methyl-3-furyl)disulfide, were rescreened using an antagonist dose response at 2500 μM. We determined the IC80 values for those five antagonists. Using those IC80 values, we completed a 3-fold dilution dose response of TMA, starting at 3000 μM, in the presence of our five candidate antagonists. […] It was difficult to determine if the five antagonists were competitive or non-competitive inhibitors using the very high IC80 concentrations of the antagonists.
In another experiment, we evaluated dose responses of TMA in the presence of the antagonist at their IC10, IC30 and IC50 concentrations.

[3] = test system: human perception of TMA odor ("fishy"); assay: Human perceptual ratings of fishiness of TMA with antagonist or control odor (air-dilution olfactometer); assay type: in vivo; conditions: human subjects, TMA 3 mM, 1 mM, 0.33 mM, odors intensity-balanced to 1 mM TMA
Protocol: We evaluated the efficacy of the in vitro antagonists on human perception. We asked 10 (FIG. 5A) or 29 (FIG. 5B) subjects to rate how “fishy” and how “pleasant” an odor was. The odors were delivered to the subject using an air-dilution olfactometer (Lundström, J. N., et al., 2010 International Journal of Psychophysiology, 78(2), 179-189; doi:10.1016/j.ijpsycho.2010.07.007) and each trial consisted of one concentration of trimethylamine (either 3 mM, 1 mM, 0.33 mM, or a water blank) combined with either an antagonist or a solvent blank. Subjects used a general labeled magnitude scale to rate how “fishy” the odor smelled and a scale from −10 to +10 to rate the pleasantness.
The antagonists and control odors were intensity-balanced to match the 1 mM concentration of TMA. Trans-2-nonen-1-ol was diluted in Diethyl phthalate (DEP); TMA was diluted in water with NaOH added; Linalool was diluted in DEP. In all trials subjects received air from jars containing water and DEP so that solvent presence could not be used as a cue to the presence of the test odor.

[4] = inhibition of TMA/TAAR5 response, test odor at 30 μM, TMA at EC80
[5] = TAAR5 luciferase, vs TMA, highest of the three concentrations in FIG. 2, read-out: IC50 concentration of antagonist

Row | Compound | inhibition at 30 µM (TAAR5 [1]; [4]) [%] | other results
1 | CC/C=C\CCC=O [cis-4-Heptenal] | 61.5 | 
2 | CCCCCC/C=C/C(C)=O [3-Decen-2-one] | 72.5 | 
3 | COc1ccc2cc(CCC(C)=O)ccc2c1 [Nabumetone] | 73.8 | 
4 | c1ccc(CSSCc2ccccc2)cc1 [Benzyl disulfide] | 81 | 
5 | O=C1CCCCCCCCCCCCCCO1 [Thibetolide] | 81 | 
6 | OC1CSC(O)CS1 (stereo not drawn) [2,5-Dihydroxy-1,4-dithiane] | 67.9 | 
7 | C/C=C(\C=O)c1ccccc1 [2-Phenyl-2-butenal] | 68.9 | 
8 | CCCCCC(C=O)=Cc1ccccc1 [Alpha-Amylcinnamaldehyde] | 75.8 | 
9 | CCCCCCCCCCCCCC(=O)O [myristic acid] | 59.1 | 
10 | O=C(Cc1ccccc1)OCCc1ccccc1 [Phenethyl phenylacetate] | 88.9 | 
11 | Tributyl-2-Acetylcitrate |  | Percent Inhibition (TAAR5 [1]; [4]): 87.83%; IC50 (TAAR5 [2]; [5]): 242 µM; IC10 concentration of antagonist (TAAR5 [2]; TAAR5 luciferase, vs TMA): 74.14 µM; IC30 concentration of antagonist (TAAR5 [2]; TAAR5 luciferase, vs TMA): 194.98 µM
12 | COC(=O)c1ccccc1/N=C/CC(C)CCCC(C)(C)O (stereo not drawn) [aurantiol] | 79.6 | 
13 | CC(C)COC(=O)c1ccccc1 [Isobutyl benzoate] | 63.3 | 
14 | C=CC(C)(O)CCC=C(C)C (stereo not drawn) [linalool, reference compound] |  | in vitro antagonism (TAAR5 [1]; hTAAR5): did not show in vitro antagonism; effect on perceived fishy rating of TMA [3]: no effect on these fishy ratings; effect on perceived fishy rating of TMA ([3]; listed as Linalool): does not
15 | Cc1ccc(C(C)C)cc1O [Carvacrol] | 52.2 | 
16 | SCc1ccccc1 [Benzyl mercaptan] | 75.8 | 
17 | O=C(Cc1ccccc1)Cc1ccccc1 [1,3-Diphenyl-2-propanone] | 73.1 | 
18 | O=C(Cc1ccccc1)OCc1ccccc1 [Benzyl phenylacetate] | 72.7 | 
19 | Cc1occc1SSc1ccoc1C [Bis(2-Methyl-3-furyl) disulfide] | 88.3 | IC50 (TAAR5 [2]; [5]): 158 µM; IC10 concentration of antagonist (TAAR5 [2]; TAAR5 luciferase, vs TMA): 31.62 µM; IC30 concentration of antagonist (TAAR5 [2]; TAAR5 luciferase, vs TMA): 77.62 µM
20 | CC(C)=CCC/C(C)=C/CO [geraniol] | 81.3 | 
21 | OCc1ccccc1 [benzyl alcohol] | 62.5 | 
22 | CSCCC=O [3-(Methylthio)propionaldehyde] | 54.5 | 

Row | Compound | inhibition at 30 µM (TAAR5 [1]; [4]) [%] | other results
23 | C[C@@]12C=CC[C@H]1[C@@H]1CCC3=CC(=O)CC[C@]3(C)[C@H]1CC2 [Androstadienone, Androsta-4,16-dien-3-one] | 76 | 
24 | O=C1CCCCCCC/C=C/CCCCCCO1 [Isoambrettolide] | 78.7 | 
25 | O=C(OCCc1ccccc1)c1ccccc1 [Phenethyl benzoate] | 93.5 | IC50 (TAAR5 [2]; [5]): 479 µM; IC10 concentration of antagonist (TAAR5 [2]; TAAR5 luciferase, vs TMA): 50.11 µM; IC30 concentration of antagonist (TAAR5 [2]; TAAR5 luciferase, vs TMA): 251.19 µM
26 | Nc1ccccc1C(=O)OCCc1ccccc1 [Phenethyl anthranilate] | 92.8 | 
27 | CC(=O)C1(C)CC2=C(CCCC2(C)C)CC1C (stereo not drawn) [iso E super, isocyclemone E] | 69.6 | 
28 | O=C(OCc1ccccc1)c1ccccc1O [Benzyl salicylate] | 74.2 | 
29 | O=C(OCCc1ccccc1)c1ccco1 [Phenethyl 2-furoate] | 59.6 | 
30 | CC/C=C/CC/C=C/C=O [Trans, trans-2,6-Nonadienal] | 71.4 | 
31 | CCCCCC=O [Hexanal] | 69.4 | 
32 | CCc1occc(=O)c1O [ethyl maltol, 2-Ethyl-3-hydroxy-4H-pyran-4-one] | 72.5 | 
33 | O=C(OCc1ccccc1)c1ccccc1 [Benzyl benzoate] | 83.9 | 
34 | O=C(OCCc1ccccc1)c1ccccc1O [Phenethyl salicylate] | 85 | 
35 | CC1COCc2cc3c(cc21)C(C)(C)C(C)C3(C)C (stereo not drawn) [Galaxolide] | 71.2 | 
36 | CCCCCCCCCCCCCCO [1-Tetradecanol] | 54.1 | 
37 | CCCCCCC/C=C/C=O [2-decenal] | 66.4 | 
38 | CC(C)CCCC(C)CCO (stereo not drawn) [3,7-Dimethyl-1-octanol] | 57.1 | 
39 | O=C1CCCC=CCCCCCCCCCC1 [velvione, 5-Cyclohexadecen-1-one] | 76 | 
40 | CC(C=O)Cc1ccc2c(c1)OCO2 (stereo not drawn) [2-Methyl-3-(3,4-methylenedioxyphenyl)-propanal] | 50.1 | 
41 | CCCCCCCCCCCC(=O)O [Lauric acid] | 86 | 
42 | C=CCN=C=S [Allyl isothiocyanate] | 77.4 | 
43 | O=CC1CCCCCC1 [Cycloheptanecarbaldehyde] | 64.4 | 
44 | C/C=C/c1ccc(OC(=O)Cc2ccccc2)c(OC)c1 [Isoeugenyl phenylacetate] | 89.1 | IC50 (TAAR5 [2]): 703 µM; IC10 concentration of antagonist (TAAR5 [2]; TAAR5 luciferase, vs TMA): 100 µM; IC30 concentration of antagonist (TAAR5 [2]; TAAR5 luciferase, vs TMA): 316.22 µM; effect on perceived fishy rating of TMA ([3]; listed as Isoeugenyl Phenylacetate): showed a similar pattern; effect on perceived fishy rating of TMA ([3]; listed as isoeugenyl phenylacetate): decreases fishy intensity
